Results on eight molecules are retold here after US8901317B2, “Tryptamine derivatives, their preparation and their use in gastropathy” (Council of Scientific & Industrial Research, priority 2010, dated 2014).

The nature of data set [1]: Ferric reducing antioxidant power (FRAP) assay. To be noted: for FRAP Value6 min (μM) M ± SD: 6 min; for FRAP Value6 min (μM) M ± SD / FRAP Value65 min (μM) M ± SD: compound at 10 μM relative to ferrous sulfate; for FRAP Value65 min (μM) M ± SD: 65 min. How it is done: The antioxidant property of different tryptamine derivatives were assessed and compared with the known antioxidants for potency. […] The FRAP assay is based on the measurement of the ability of the substance to reduce Fe^3+ to Fe^2+, greater the reducing ability greater the anti oxidant property. Antioxidants reduce Fe^3+-TPTZ in to blue colored Fe^2+-TPTZ complex, which results in an increase in the absorbance at 595 nm giving a FRAP value. […] Absorbance changes at different time intervals (FIG. 6) as well as at different concentrations (FIG. 7) at time 6 min in the presence of different compounds at 595 nm were measured. FRAP values at 6 min and 65 min were calculated from different tryptamine derivatives and some known antioxidant (Table 1). […] DPPH assay based on the DPPH free radicals scavenging power of the antioxidant molecules. Higher the scavenging power higher will be the antioxidant property.
The assay was performed in a 96-well microplate. FRAP reagent was prepared by mixing of 10 ml acetate buffer (200 mM, pH-3.6), 1 ml of 2,4,6-tris(2-pyridyl)-s-triazine (TPTZ) solution (10 mM in 40 mM HCl) and 1 ml of ferric chloride solution (20 mM) in distilled water. For 1 h the mixture was kept in a water bath at 37° C. In 96-well microplates, 25 μL of the compounds under investigation dissolved (in methanol, some compound dissolved in water) at different concentrations in the range 1-25 μM was placed in triplicate and freshly prepared FRAP solution (175 μL) was added to this sample. A micro plate reader monitored the absorbance at 595 nm at different time intervals for up to 150 min. The absorbance of a mixture 175 μL TRAP sol and 25 μL methanol or water was taken which was subtracted from the absorbance of the samples at each time interval to calculate the absorbance change (ΔA). The FRAP value at time interval t (FRAP valuet) was calculated according to the formula: FRAP valuet(M)=(ΔatFl/ΔatFe^2+)×10^−5 Where ΔatFl is the absorbance change after the time interval t (6 and 65 min) relative to the tested flavonoid at the concentration of 10 μM and ΔatFe^2+ is the absorbance change at the same time interval relative to ferrous sulfate at the same concentration (Pal, C; et al. Free Radic Biol Med, 49(2), 258-267, 2010, Firuzi, O; et al. Biochim. Biophys. Acta 1721:174-184; 2005).

The nature of data set [2]: DPPH free radical scavenging assay. How it is done: The antioxidant property of different tryptamine derivatives were assessed and compared with the known antioxidants for potency. A range of different synthesized compounds and known anti oxidants, quercetin, ascorbic acid and gallic acid were analyzed by the FRAP assay. The FRAP assay is based on the measurement of the ability of the substance to reduce Fe^3+ to Fe^2+, greater the reducing ability greater the anti oxidant property. Antioxidants reduce Fe^3+-TPTZ in to blue colored Fe^2+-TPTZ complex, which results in an increase in the absorbance at 595 nm giving a FRAP value. […] Absorbance changes at different time intervals (FIG. 6) as well as at different concentrations (FIG. 7) at time 6 min in the presence of different compounds at 595 nm were measured. FRAP values at 6 min and 65 min were calculated from different tryptamine derivatives and some known antioxidant (Table 1). […] DPPH assay based on the DPPH free radicals scavenging power of the antioxidant molecules. Higher the scavenging power higher will be the antioxidant property. […] This assay was performed in presence of some known antioxidants such as ascorbic acid, quercetin and gallic acid.
2,2-Diphenyl-1-Picrylhydrazyl (DPPH) is a stable free radical that can accept hydrogen radical or an electron and become a stable diamagnetic molecule. The antioxidants can scavenge the DPPH by donating hydrogen as visualized by discoloration of the DPPH radical from purple to yellow (Pal, C; et al. Free Radic Biol Med, 49(2), 258-267; 2010, Ben Farhat, M.; et al. J. Agric. Food Chem. 57:10349-10356; 2009, Han, J; et al. Wei Sheng Yan Jiu 38:596-598; 2009). The assay system contained 1 mL of compounds under investigation dissolved (in methanol, some compound dissolved in water) at different concentrations in the range 10-100 μM solution and 4 ml of DPPH (0.15 mM) in methanol (80% in water v/v) and mixed well. It was allowed to stand for 30 min at 27° C. away from light. Ascorbic acid at the same concentration was taken as positive control. The absorbance of the solution was measured spectrophotometrically at 517 nm and from the decrease of absorption; the antioxidant activity of different tryptamine derivatives were determined.
(The DPPH test is a chemical assay of radical scavenging.)

Data set [3] has as its system indomethacin-induced gastric mucosal damage. Description: Indomethacin-induced gastric mucosal damage (ulcer index, histology). Type of data set: in vivo, Sprague-Dwaley rats. To be noted: for gastroprotective effect compared with SEGA (3a): 6.9 mg kg^−1 intraperitoneally, indomethacin-induced gastropathy; for Gastric mucosal damage (ulcer index): rats. How it is done: Sprague-Dwaley rats (180-220 gm) were used for this study. Each group (control or experimental) of animals was maintained at 24±2° C. with 12 hrs lights and dark cycle. The animals were fasted for 24 hrs before the start of experiments. They were provided with water ad libitum to avoid food-induced increased acid secretion and its effect on gastric lesions. Gastric mucosal ulcer was developed by indomethacin as described (Pal, C; et al. Free Radic Biol Med, 49(2), 258-267; 2010, Biswas, K.; et al. J. Biol. Chem. 278:10993-11001; 2003, Bandyopadhyay, U.; et al. Life Sci. 71:2845-2865; 2002). Briefly, all the animals were divided into control, indomethacin and test compound group. Oral administration of indomethacin at a dose of 48 mg kg^−1 b.w was given to the fasted animals to induce gastric ulcer. […] Control group received vehicle only but no indomethacin. After 4 hrs of indomethacin treatment, the animals were sacrificed under proper euthanasia and stomachs were collected. The mucosal injury was scored as ulcer index as follows: 0=no pathology; 1=one pinhead ulcer. The sum of the total scores divided by the number of animals gave the ulcer index. All the in vivo studies were done in accordance with the institute animal ethical committee guidelines. To see the effect of SEGA on diclofenac induced gastric mucosal injury, gastric mucosal damage was developed by the oral administration of diclofenac (75 mg kg^−1) and the rest of the experiment was carried out in a similar way as described for indomethacin. Diclofenac produced pinhead ulcer like indomethacin and the mucosal injury was scored as ulcer index as described above. Ethanol-induced gastric mucosal injury was developed with oral administration of 1 ml of 50% ethanol (Banerjee, R. K. (2002) Life Sci 71, 2845-2865) and after 4 hrs the animals were sacrificed and cold-restrain stress induced mucosal injury was developed by immobilizing the animals at 4° C. for 3.5 hrs (Banerjee, R. K. (2002) Life Sci 71, 2845-2865, (2003) J Biol Chem 278, 10993-11001).
Stomach tissues from the animals of different groups were washed first washed several times with PBS (pH 7.4) and later fixed in 10% buffered formalin for 12 hrs at 25° C. The formalin-fixed tissues were then dehydrated and embedded in paraffin for preparing semi-thin sections (Maity, P.; et al. J. Biol. Chem. 283:14391-14401; 2008). The semi-thin sections were prepared using a microtome and taken over poly-L-lysine coated glass slide for hematoxylene-eosine staining. The stained sections were observed under microscope (Leica DM-2500, Germany) and were documented by high-resolution digital camera.

The conditions of data set [4]: literature (Shahrzad et al. 2001); cited from earlier work.
In data set [5] the test system is rats. Description: Toxicity (death) after injection in rats. It counts as in vivo.
For data set [6], the system named is CaCo2 colon cancer cells. The conditions noted are these: literature (Shoeb et al. 2006); cited from earlier work.
The mark [7] stands for this setting: compounds 100 μM, 517 nm (Table 2).
The mark [8] stands for this setting: compound 6.9 mg kg^−1 intraperitoneally before indomethacin 48 mg kg^−1 oral.

As to `O=C(NCCc1c[nH]c2ccccc12)c1cc(O)c(O)c(O)c1` [Compound 3b, N-(2-(1H-indol-3-yl)ethyl)-3,4,5-trihydroxybenzamide], in data set [1], the “FRAP Value6 min (μM) M ± SD” value amounted to 14.32 ± 0.36 µM. For the same molecule, in data set [1], the “FRAP Value65 min (μM) M ± SD” value came out at 19.65 ± 2.1 µM. In addition, the “Absorbance change (ΔA) at 30 min” value in data set [2] (setting [7]) was 0.31 ± 0.06; in data set [2] (concentration 10 μM (Table 3)), 0.16 ± 0.02; in data set [2] (concentration 30 μM (Table 3)), 0.21 ± 0.05; in data set [2] (concentration 50 μM (Table 3)), 0.23 ± 0.04; in data set [2] (concentration 80 μM (Table 3)), 0.28 ± 0.03; in data set [2] (concentration 100 μM (Table 3)), 0.31 ± 0.06. In addition, the “gastroprotective effect compared with SEGA (3a)” value in data set [3] is reported as “lesser gastroprotective effect”. In data set [3] (setting [8]), the “Gastric mucosal damage (ulcer index)” value is 42 ± 2.
Turning to `NCCc1c[nH]c2ccc(OC(=O)c3cc(O)c(O)c(O)c3)cc12` [Compound 4d, 3-(2-aminoethyl)-1H-indol-5-yl 3,4,5-trihydroxybenzoate], in data set [1], the “FRAP Value6 min (μM) M ± SD” value came to 24.02 ± 1.98 µM. The “FRAP Value65 min (μM) M ± SD” value in data set [1] was 35.40 ± 3.25 µM. For the same molecule, the “Absorbance change (ΔA) at 30 min” value in data set [2] (setting [7]) is on record as 0.38 ± 0.07; in data set [2] (concentration 10 μM (Table 3)) it was 0.18 ± 0.01; in data set [2] (concentration 30 μM (Table 3)), 0.27 ± 0.03; in data set [2] (concentration 50 μM (Table 3)), 0.31 ± 0.05; in data set [2] (concentration 80 μM (Table 3)), 0.33 ± 0.05; in data set [2] (concentration 100 μM (Table 3)), 0.38 ± 0.07. The “gastroprotective effect compared with SEGA (3a)” value in data set [3] is “lesser gastroprotective effect”. In data set [3] (setting [8]), the “Gastric mucosal damage (ulcer index)” value came to 41 ± 2.5.
For the molecule `O=C(O)c1cc(O)c(O)c(O)c1` [Gallic acid, reference compound], in data set [1], the “FRAP Value6 min (μM) M ± SD” value was 33.90 ± 4.92 µM and the “FRAP Value65 min (μM) M ± SD” value amounted to 46.59 ± 8.41 µM. Also, the bioavailability in plasma entry in data set [4] is listed as “low”.
As for `NCCc1c[nH]c2ccc(O)cc12` [Serotonin, 5-hydroxytryptamine, reference compound], in data set [1], the “FRAP Value6 min (μM) M ± SD” value came out at 21.61 ± 3.65 µM and the “FRAP Value65 min (μM) M ± SD” value stood at 35.48 ± 6.55 µM. For the same molecule, the “reducing ability (Fe^3+ to Fe^2+) / antioxidant property in words” value in data set [1] (compared to other tryptamine derivatives and known antioxidants) is reported as “very little antioxidant property”. In addition, the “death of rats after injection” value in data set [5] (i.p. 25 mg kg^−1) is reported as “all the rats were found to be dead”. In addition, in data set [5] (i.p. 50 mg kg^−1), the “death of rats after injection” value is “all the rats were found to be dead”.
For the molecule `COc1ccc2[nH]cc(CCNC(=O)c3cc(O)c(O)c(O)c3)c2c1` [Compound 3c, 3,4,5-trihydroxy-N-(2-(5-methoxy-1H-indol-3-yl)ethyl)benzamide], the “FRAP Value6 min (μM) M ± SD” value in data set [1] came out at 15.32 ± 0.46 µM. Further, in data set [1], the “FRAP Value65 min (μM) M ± SD” value turned out to be 21.96 ± 2.6 µM. For the same molecule, the “Absorbance change (ΔA) at 30 min” value stood at 0.35 ± 0.08 in data set [2] (setting [7]); 0.18 ± 0.02 in data set [2] (concentration 10 μM (Table 3)); 0.24 ± 0.03 in data set [2] (concentration 30 μM (Table 3)); 0.28 ± 0.05 in data set [2] (concentration 50 μM (Table 3)); 0.31 ± 0.07 in data set [2] (concentration 80 μM (Table 3)); 0.35 ± 0.08 in data set [2] (concentration 100 μM (Table 3)). For the same molecule, in data set [3], the “gastroprotective effect compared with SEGA (3a)” value is reported as “lesser gastroprotective effect”. For the same molecule, the “Gastric mucosal damage (ulcer index)” value in data set [3] (setting [8]) is on record as 39 ± 2.
Regarding `O=C(/C=C/c1ccc(O)cc1)NCCc1c[nH]c2ccc(O)cc12` [Compound 2b, (E)-N-(2-(5-hydroxy-1H-indol-3-yl)ethyl)-3-(4-hydroxyphenyl)acrylamide], in data set [1], the “FRAP Value6 min (μM) M ± SD” value is 3.09 ± 0.13 µM and the “FRAP Value65 min (μM) M ± SD” value was found to be 7.44 ± 1.47 µM. Moreover, the “Absorbance change (ΔA) at 30 min” value in data set [2] (setting [7]) is 0.12 ± 0.01. Besides, the “in vitro cytotoxic activity” value in data set [6] was “shows in vitro cytotoxic activity”.
`COc1ccc2c(c1)c(CC(=O)O)c(C)n2C(=O)c1ccc(Cl)cc1` [Indomethacin, reference compound]: the “Gastric mucosal damage (ulcer index)” value in data set [3] (indomethacin 48 mg kg^−1 alone, oral) is on record as 61 ± 3.
Take `NCCc1c[nH]c2ccc(OC(=O)CCCC(=O)NCCc3c[nH]c4ccc(O)cc34)cc12` [Compound 6c, 3-(2-aminoethyl)-1H-indol-5-yl 5-(2-(5-hydroxy-1H-indol-3-yl)ethylamino)-5-oxopentanoate]: in data set [1], the “FRAP Value6 min (μM) M ± SD” value is 17.51 ± 0.38 µM and the “FRAP Value65 min (μM) M ± SD” value stood at 29.78 ± 3.87 µM. Besides, the “Absorbance change (ΔA) at 30 min” value in data set [2] (setting [7]) amounted to 0.19 ± 0.03. Moreover, the “death of rats after injection” value in data set [5] (injected, dose not given) was “all the rats were found dead within 20 mins”.
